Reference: ChEMBL document CHEMBL3865806, “3-Hydrazinoindolin-2-one derivatives: Chemical classification and investigation of their targets as anticancer agents” (Eur J Med Chem, 2016)

Experiments:
[1] = Cytotoxicity against human […] cells measured after 48 hrs by SRB assay; assay type: functional; conditions: RXF 393, 48 h
[2] = Cytotoxicity against human UO31 cells measured after 48 hrs by SRB assay; assay type: functional; conditions: UO-31, 48 h
[3] = Cytotoxicity against human U251 cells measured after 48 hrs by SRB assay; assay type: functional; conditions: U-251, 48 h
[4] = Cytotoxicity against human KB-3-1 cells measured after 72 hrs by MTT assay; assay type: functional, cell-based; conditions: KB 3-1, 72 h
[5] = Cytotoxicity against human KBV1 cells expressing P-glycoprotein measured after 72 hrs by MTT assay; assay type: functional, cell-based; conditions: KB-V1, 72 h
[6] = target: T1, Hepatocyte growth factor receptor (Homo sapiens, UniProt P08581); assay: Inhibition of GST-tagged c-Met (unknown origin) assessed as phosphotyrosine levels preincubated foe 15 mins followed by addition of poly(glutamic acid-tyrosine (4:1)) as substrate and ATP by ELISA
T1 sequence (P08581 whole entry): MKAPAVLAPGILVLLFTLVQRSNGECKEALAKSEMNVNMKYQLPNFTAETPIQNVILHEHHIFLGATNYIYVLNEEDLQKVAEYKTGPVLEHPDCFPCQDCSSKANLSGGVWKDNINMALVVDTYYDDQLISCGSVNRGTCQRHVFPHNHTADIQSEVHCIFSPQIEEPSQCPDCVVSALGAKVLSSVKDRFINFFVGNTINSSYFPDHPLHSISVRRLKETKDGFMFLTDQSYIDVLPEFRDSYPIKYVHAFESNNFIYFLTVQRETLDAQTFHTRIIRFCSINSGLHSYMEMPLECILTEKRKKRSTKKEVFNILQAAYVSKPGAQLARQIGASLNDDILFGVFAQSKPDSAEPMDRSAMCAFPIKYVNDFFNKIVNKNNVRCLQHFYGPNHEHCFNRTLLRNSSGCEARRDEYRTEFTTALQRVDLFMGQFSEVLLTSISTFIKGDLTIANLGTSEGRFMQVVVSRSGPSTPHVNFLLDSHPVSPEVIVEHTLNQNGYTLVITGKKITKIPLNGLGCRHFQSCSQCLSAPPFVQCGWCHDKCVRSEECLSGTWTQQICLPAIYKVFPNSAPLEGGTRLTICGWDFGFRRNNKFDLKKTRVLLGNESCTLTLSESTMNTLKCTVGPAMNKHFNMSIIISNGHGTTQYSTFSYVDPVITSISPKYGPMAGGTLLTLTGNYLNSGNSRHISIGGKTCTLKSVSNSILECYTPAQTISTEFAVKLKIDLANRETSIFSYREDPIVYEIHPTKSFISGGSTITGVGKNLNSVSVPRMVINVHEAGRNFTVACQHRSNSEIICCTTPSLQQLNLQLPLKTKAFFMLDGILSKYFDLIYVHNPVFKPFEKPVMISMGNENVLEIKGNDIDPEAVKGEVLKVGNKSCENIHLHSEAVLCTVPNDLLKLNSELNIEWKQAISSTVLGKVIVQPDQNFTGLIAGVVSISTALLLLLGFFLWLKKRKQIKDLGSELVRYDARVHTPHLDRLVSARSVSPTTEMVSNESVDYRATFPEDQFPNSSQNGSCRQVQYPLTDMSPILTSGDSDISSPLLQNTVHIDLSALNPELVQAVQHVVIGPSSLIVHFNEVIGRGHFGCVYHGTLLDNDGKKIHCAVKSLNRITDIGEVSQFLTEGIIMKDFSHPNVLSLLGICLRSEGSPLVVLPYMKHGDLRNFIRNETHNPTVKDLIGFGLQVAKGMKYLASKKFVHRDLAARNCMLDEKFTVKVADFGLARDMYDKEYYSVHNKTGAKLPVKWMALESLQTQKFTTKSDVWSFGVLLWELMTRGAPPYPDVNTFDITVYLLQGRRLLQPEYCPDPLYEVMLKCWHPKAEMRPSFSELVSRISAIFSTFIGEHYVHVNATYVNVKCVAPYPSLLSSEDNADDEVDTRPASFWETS

[7] = Cytotoxicity against human HepG2 cells measured after 72 hrs by SRB assay; assay type: functional, cell-based; conditions: HepG2, 72 h
[8] = Antiproliferative activity against human MCF7 cells measured after 48 hrs by SRB assay; assay type: functional, cell-based; conditions: MCF7, 48 h
[9] = Growth inhibition of human SR cells measured after 48 hrs by SRB assay; assay type: functional
[10] = Growth inhibition of human NCI-H522 cells measured after 48 hrs by SRB assay; assay type: functional
[11] = Growth inhibition of human MDA-MB-468 cells measured after 48 hrs by SRB assay; assay type: functional
[12] = target: Epidermal growth factor receptor (Homo sapiens) (UniProt P00533); assay: Inhibition of EGFR (unknown origin) at 100 uM relative to control
Chain of Epidermal growth factor receptor (Homo sapiens) (P00533 whole entry): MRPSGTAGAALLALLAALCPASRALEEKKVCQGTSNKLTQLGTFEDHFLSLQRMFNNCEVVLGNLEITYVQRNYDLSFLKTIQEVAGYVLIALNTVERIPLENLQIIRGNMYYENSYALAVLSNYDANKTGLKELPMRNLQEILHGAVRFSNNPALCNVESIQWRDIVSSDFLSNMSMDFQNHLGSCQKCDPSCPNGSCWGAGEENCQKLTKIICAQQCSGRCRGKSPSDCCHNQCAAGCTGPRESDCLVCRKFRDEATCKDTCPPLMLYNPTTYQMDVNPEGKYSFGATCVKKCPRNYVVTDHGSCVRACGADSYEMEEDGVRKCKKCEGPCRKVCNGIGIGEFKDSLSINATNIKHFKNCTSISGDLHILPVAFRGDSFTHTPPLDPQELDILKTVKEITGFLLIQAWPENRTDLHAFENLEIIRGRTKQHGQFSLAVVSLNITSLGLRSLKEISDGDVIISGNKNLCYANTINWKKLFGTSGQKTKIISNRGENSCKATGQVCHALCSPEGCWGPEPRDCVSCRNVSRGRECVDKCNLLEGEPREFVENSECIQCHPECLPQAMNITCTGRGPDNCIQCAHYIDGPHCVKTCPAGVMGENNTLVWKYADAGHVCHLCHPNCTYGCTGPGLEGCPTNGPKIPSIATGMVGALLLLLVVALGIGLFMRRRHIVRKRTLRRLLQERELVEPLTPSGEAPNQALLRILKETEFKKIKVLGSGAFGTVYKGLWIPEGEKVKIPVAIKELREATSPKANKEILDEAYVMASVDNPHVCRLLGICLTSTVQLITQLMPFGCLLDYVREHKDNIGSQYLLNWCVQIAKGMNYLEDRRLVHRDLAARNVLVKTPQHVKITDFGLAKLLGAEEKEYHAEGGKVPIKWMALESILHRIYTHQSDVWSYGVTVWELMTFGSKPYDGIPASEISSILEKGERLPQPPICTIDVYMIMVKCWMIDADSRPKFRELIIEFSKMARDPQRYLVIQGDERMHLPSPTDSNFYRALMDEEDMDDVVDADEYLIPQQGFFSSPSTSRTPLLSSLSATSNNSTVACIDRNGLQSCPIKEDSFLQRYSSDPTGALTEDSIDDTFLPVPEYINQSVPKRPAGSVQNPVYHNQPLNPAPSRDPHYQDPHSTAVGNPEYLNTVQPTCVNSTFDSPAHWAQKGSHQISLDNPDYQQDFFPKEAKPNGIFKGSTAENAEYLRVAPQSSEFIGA

[13] = target: T1, Hepatocyte growth factor receptor; assay: Inhibition of C-Met in human S114 cells assessed as inhibition of HGF-stimulated autophosphorylation preincubated for 60 mins followed by HGF-stimulation measured after 15 minsby DELFIA method; assay type: cell-based
[14] = target: Glycogen synthase kinase-3 beta (Homo sapiens, UniProt P49841); assay: Inhibition of GSK-3beta (unknown origin) assessed as inhibition of phosphorylation using Ser/Thr 9 peptide as substrate by FRET-based Z-LYTE assay
Chain of Glycogen synthase kinase-3 beta (P49841 whole entry): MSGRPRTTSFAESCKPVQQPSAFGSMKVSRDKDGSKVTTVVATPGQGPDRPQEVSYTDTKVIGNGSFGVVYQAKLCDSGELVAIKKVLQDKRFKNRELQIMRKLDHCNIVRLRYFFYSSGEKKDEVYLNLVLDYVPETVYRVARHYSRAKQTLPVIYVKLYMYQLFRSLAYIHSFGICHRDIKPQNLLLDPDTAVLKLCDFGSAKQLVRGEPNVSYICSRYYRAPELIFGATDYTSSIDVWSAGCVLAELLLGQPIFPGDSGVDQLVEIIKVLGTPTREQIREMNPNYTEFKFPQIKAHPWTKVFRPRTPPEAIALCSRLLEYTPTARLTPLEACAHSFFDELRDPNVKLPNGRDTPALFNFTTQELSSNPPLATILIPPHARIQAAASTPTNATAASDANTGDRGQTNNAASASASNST

[15] = target: T2, Tyrosine-protein phosphatase non-receptor type 11 (Homo sapiens, UniProt Q06124)
T2 sequence (Q06124 whole entry): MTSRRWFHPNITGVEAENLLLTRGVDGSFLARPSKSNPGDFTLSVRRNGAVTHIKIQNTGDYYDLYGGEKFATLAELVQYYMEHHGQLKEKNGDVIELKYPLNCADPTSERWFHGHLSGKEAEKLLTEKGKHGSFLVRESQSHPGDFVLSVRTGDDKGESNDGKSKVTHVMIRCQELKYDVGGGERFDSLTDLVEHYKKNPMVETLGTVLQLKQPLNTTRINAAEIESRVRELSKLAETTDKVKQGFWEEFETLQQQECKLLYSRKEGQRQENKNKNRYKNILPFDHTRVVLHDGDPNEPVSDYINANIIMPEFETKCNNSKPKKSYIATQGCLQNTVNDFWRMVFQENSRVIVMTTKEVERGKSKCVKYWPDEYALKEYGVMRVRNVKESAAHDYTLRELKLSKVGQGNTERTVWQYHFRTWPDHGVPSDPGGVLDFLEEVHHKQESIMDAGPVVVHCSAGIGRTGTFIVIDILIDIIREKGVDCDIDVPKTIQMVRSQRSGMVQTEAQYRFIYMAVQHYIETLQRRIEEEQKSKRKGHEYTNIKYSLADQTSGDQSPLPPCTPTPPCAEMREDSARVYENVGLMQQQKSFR
Description: Inhibition of human GST-tagged Shp2 (205 to 593 residues) expressed Escherichia coli DH5alpha assessed as inhibition of PTP activity using DiFMUP as substrate measured after 30 mins by fluorescence analysis

[16] = Anticancer activity against human HeLa cells measured after 48 hrs by MTT assay; assay type: functional, cell-based
[17] = Anticancer activity against human IMR32 cells measured after 48 hrs by MTT assay; assay type: functional, cell-based; conditions: IMR-32, 48 h
[18] = Antiproliferative activity against human MCF7 cells measured after 48 hrs by MTT assay; assay type: functional, cell-based; conditions: MCF7, 48 h
[19] = Cytotoxicity against human HOP62 cells measured after 48 hrs by SRB assay; assay type: functional; conditions: HOP-62, 48 h
[20] = Cytotoxicity against human HL-60(TB) cells measured after 48 hrs by SRB assay; assay type: functional; conditions: HL-60, 48 h
[21] = Cytotoxicity against human MOLT4 cells measured after 48 hrs by SRB assay; assay type: functional; conditions: MOLT-4, 48 h
HeLa = assay: Inhibition of HDAC in human HeLa cell nuclear extract at 30 uM using Fluor de Lys as substrate measured after 10 to 15 mins by fluorimetric assay; assay type: cell-free
[22] = Antiproliferative activity against mouse L1210 cells; assay type: functional, cell-based
[23] = Cytotoxicity against porcine testicular cells assessed as cell death at 120 to 250 ug/ml; assay type: toxicity, cell-based, Sus scrofa; conditions: pig
[24] = Antiproliferative activity against human K562 cells measured after 48 hrs by WST1 assay; assay type: functional, cell-based; conditions: K562, 48 h

Compound `O=c1[nH]cc(F)c(=O)[nH]1` [FLUOROURACIL] has a GI50 [1] of 55000 nM, a GI50 [2] of 6760 nM and a GI50 [3] of 42700 nM.
With `O=C1Nc2ccc(OC(F)(F)F)cc2/C1=N/N=C1/C(=O)N(c2ccccc2)c2ccccc21` the IC50 [4] was 7670 nM and the IC50 [5] was 4800 nM.
Compound `O=C(Cc1ccc(O)c(Cl)c1)N/N=C1\C(=O)Nc2c(Cl)ccc(Cl)c21` has an IC50 [6] of 9 nM.
For `O=C1Nc2ccc(F)cc2/C1=N/Nc1nc(-c2ccccc2)nc2ccccc12`, the IC50 [7] was 1000 to 2400 nM.
`O=C(CSc1nc2ccccc2c(=O)n1-c1ccccc1)N/N=C1\C(=O)Nc2ccc(F)cc21` showed a GI50 [1] of 1660 nM, a GI50 [2] of 209 nM and a GI50 [3] of 1700 nM.
In the case of `O=C1Nc2ccc(Cl)cc2/C1=N/Nc1nc(-c2ccc3c(c2)OCO3)nc2ccccc12`, the IC50 [7] is reported as 1000 to 2400 nM.
In the case of `Nc1c(C(=O)N/N=C2\C(=O)Nc3ccc([N+](=O)[O-])cc32)cnn1C(=O)c1ccc(-c2nc3ccccc3s2)cc1`, the IC50 [8] is reported as 10 nM.
With `CSc1ccc(CC(=O)N/N=C2\C(=O)Nc3ccccc32)cc1` the IC50 [6] was > 20000 nM.
In the case of `O=C(CN/N=C1\C(=O)Nc2ccccc21)Nc1nc2ccc(Cl)cc2s1`, the “growth inhibition (GI)” value [9] is reported as 26.6%, the “growth inhibition (GI)” value [10] is reported as 27.5% and the “growth inhibition (GI)” value [11] is reported as 38.1%. The inhibition [12] was 36.6%.
In the case of `O=C(Cc1ccc2c(c1)CCO2)N/N=C1\CNc2cc(C(=O)NCCN3CCOCC3)cc(Br)c21`, the IC50 [13] is reported as 0.7 nM.
`COc1ccc(-c2nc(N/N=C3\C(=O)Nc4ccccc43)c3ccccc3n2)cc1OC` showed an IC50 [7] of 1000 to 2400 nM.
Compound `Cc1cc2c(cc1Br)NC(=O)/C2=N\NC(=O)c1ccccc1O` has an IC50 [14] of 15800 nM.
With `O=C1Nc2ccc(S(=O)(=O)O)cc2/C1=N/Nc1ccccc1[N+](=O)[O-]` the IC50 [15] was 4990 nM.
With `O=C(N/N=C1\C(=O)Nc2ccc(Br)cc21)Nc1nc2ccccc2o1` the IC50 [16] was 15900 nM, the IC50 [17] was 13700 nM and the IC50 [18] was 17900 nM.
With `O=C1/C(=N\NC(=S)Nc2ccccc2)c2cc([N+](=O)[O-])ccc2N1CN1CCCCC1` the GI50 [19] was < 10 nM, the GI50 [20] was 501 nM and the GI50 [21] was 661 nM.
`O=C(Cc1ccc2c(c1)CCO2)N/N=C1\CNc2cc(C(=O)NCCCCN3CC[C@H](O)C3)cc(Br)c21` gave an IC50 [13] of 0.7 nM.
Work on `COc1ccc(NC(=S)N/N=C2\C(=O)Nc3ccccc32)cc1` yielded an IC50 [5] of 3300 nM.
Compound `O=C(Cc1ccc(O)c(F)c1)N/N=C1\C(=O)Nc2c(Cl)ccc(Cl)c21` has an IC50 [6] of 9 nM.
Compound `Cc1[nH]c(/C=N/N=C2\C(=O)Nc3ccc(F)cc32)c(C)c1C(=O)NCCCCCCCC(=O)NO` has an inhibition (HeLa) of 98%.
`Cc1ccc2c(c1)/C(=N/NC(=O)N/N=C1\C(=O)Nc3ccc(C)cc31)C(=O)N2` showed an IC50 [22] of 16000 nM.
With `CS(=O)(=O)c1ccc(CC(=O)N/N=C2\C(=O)Nc3ccccc32)cc1` the IC50 [6] was > 20000 nM.
Compound `CN1CCN(CC(=O)N/N=C2\C(=O)Nc3ccc4ccccc4c32)CC1` has an Activity [23] of 100%.
For `Cc1nc(-c2ccccc2)ccc1C(=O)N/N=C1\C(=O)Nc2ccc(Br)cc21`, the IC50 [24] was 25000 nM.
`O=C(Cc1ccc2c(c1)CCO2)N/N=C1\CNc2cc(C(=O)NCCCCN3CCC[C@H]3CO)cc(Br)c21` showed an IC50 [13] of 0.5 nM.
